Test results: patent publication US8778966B2, “Quinolinone derivatives as PARP and tank inhibitors” (Janssen Pharmaceutica, NV, priority 2007, dated 2014)

How the values were obtained:
HCT116 cells = experiment: Mitotic arrest assay on HCT116 cells (phospho-histone H3 Ser10); assay type: cell-based, human; conditions: lowest active dose; for minimal effective concentration: Homo sapiens, HCT-116, HCT116 cells, read-out: Mitotic arrest HCT116 LAD (converted)
From the text: Phosphorylation of histone H3 is tightly correlated with chromosome condensation during both mitosis and meiosis. The assay is a cellular immunosorbent assay wherein the sole antibody is labelled with a detectable conjugate. The phospho-histone H3 (ser10) antibody detects endogenous levels of histone H3 only when phosphorylated at serine 10. […] In parallel with antibody detection, the nuclei of the cells are stained with Hoechst 33342 for cell-counting. Cells are detected and analysed using the InCell Analyzer 1000 from GE Healthcare. Since both the antibody-detection as well as the Hoechst-staining are in the nucleus, the dual area object intensity algorithm is used for analysing the wells.
All compounds tested were dissolved in DMSO and further dilutions were made in culture medium. Final DMSO concentrations never exceeded 0.1% (v/v).
HCT116 cells (supplier: ATCC) (human colon carcinoma cell line) were cultivated in Mc Coy's 5 A medium (supplier: Gibco) supplemented with 10% foetal calf serum (FCS), 2 mM L-glutamine and gentamycin at 37° C. in a humidified incubator with 5% CO2.
HCT116 cells were seeded at 20.000 cells per well in a 96 well plate (black/clear bottom, poly-D-lysine coated, supplier Greiner), cultured overnight to adhere to the bottom of the plate and treated with compound for 6 hours at 37° C. in a humidified incubator. After incubation, the medium was removed and cells were fixed using 100 μl/well formaldehyde (Accustain®, Formaline solution 10% neutral buffered, contains 4% formaldehyde w/v, supplier: Sigma) was added. After incubation for 15 minutes at room temperature, the formaldehyde was removed and cells were incubated with methanol (−20° C.) for 15 minutes at room temperature. After incubation, cells were washed once with phosphate-buffered saline (PBS —CaCl2, —MgCl2, suppier: Gibco)/0.05% Tween 20. The anti-phospho-histone H3 (Ser10) Alexa Fluor 488 antibody (supplier: Cell signalling) is used for detection of the cells inmitosis. The antibody was diluted 1/50 in 5% bovine serum albumins (BSA) and 50 μl/well was used for incubation overnight at room temperature in the dark.
A 1/2000 dilution of Hoechtst 33342 (10 mg/ml, supplier: Invitrogen) was made and 100 μl/well was added for at least 30 minutes before acquiring images. The absorbance at dual wavelengths of 360/480 nm was measured using the InCell Analyzer 1000 from GE Healthcare and the results were then analyzed.
For each experiment, controls (containing no drug) and a blank incubation (containing no cells or drugs) were run in parallel. Analysis was done in triplicate. Low cell count wells were invalidated. The blank value was subtracted from all control and sample values and divided by the standard deviation of the measurements. The compounds were considered active when the obtained value (sigma) was >5. Herein the effects of test compounds are expressed as the lowest dose giving a sigma value of >5 (LAD) (see table F-2).

PC-3 cells = experiment: Antiproliferative activity, Alamar Blue assay, PC-3 cells; assay type: cell-based, human; conditions: Homo sapiens, PC-3, PC3 cells; read-out: PC3 antiproliferative activity pIC50 (converted)
Summary of the method: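 PC-3 cells seeded at 4.5×10^3 cells/ml, left to adhere 24 hr, then exposed to compound for 4 days. Resazurin (Alamar Blue) added for a further 24 hrs at 37° C; fluorescence read at 540/590 nm. Viability as % of untreated control, mean of 3 wells; IC50 by probit analysis, reported as pIC50.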

IC50 (PC-3 cells) [nM]	SMILES	minimal effective concentration (HCT116 cells) [µM]	Mitotic arrest HCT116 LAD (HCT116 cells; HCT116 cells, the values are: pLAD (−log M lowest active dose))
1000	CCc1cc2ccc(C(C)(C#N)Cc3cc(F)cc(C(F)(F)F)c3)cc2[nH]c1=O (stereo not drawn) [Compound 127]	0.316	
200	CCc1cc2ccc(C(C)(C#N)Cc3cc(F)cc(F)c3)cc2[nH]c1=O (stereo not drawn) [Compound 128]	0.1	
5010	CCc1cc2ccc(C(C)(C#N)Cc3cccc(S(C)(=O)=O)c3)cc2[nH]c1=O (stereo not drawn) [Compound 129]	0.316	
398	CCc1cc2ccc(C(C)(C#N)Cc3cccc(Cl)c3F)cc2[nH]c1=O (stereo not drawn) [Compound 130]	0.1	
> 10000	CCc1cc2ccc(C(C)(C#N)Cc3cc(C(F)(F)F)cc(C(F)(F)F)c3)cc2[nH]c1=O (stereo not drawn) [Compound 131]	3.16	
631	CCc1cc2ccc(C(C)(C#N)Cc3cccc(C)c3F)cc2[nH]c1=O (stereo not drawn) [Compound 132]	0.1	
501	CCc1cc2ccc(C(C)(C#N)Cc3cc(Br)cc(Br)c3)cc2[nH]c1=O (stereo not drawn) [Compound 133]	0.1	
1000	CCc1cc2ccc(C(C)(C#N)Cc3cccc(C(F)(F)F)c3F)cc2[nH]c1=O (stereo not drawn) [Compound 134]	0.316	
1000	CCc1cc2ccc(C(C)(C#N)Cc3c(Cl)cccc3Cl)cc2[nH]c1=O (stereo not drawn) [Compound 135]	0.2	
1000	CCc1cc2ccc(C(C)(C#N)Cc3c(Cl)cccc3Br)cc2[nH]c1=O (stereo not drawn) [Compound 136]	0.316	
794	CCc1cc2ccc(C(C)(C#N)Cc3ccc(F)cc3F)cc2[nH]c1=O (stereo not drawn) [Compound 137]	0.316	
1000	CCc1cc2ccc(C(C)(C#N)Cc3c(F)cccc3F)cc2[nH]c1=O (stereo not drawn) [Compound 138]	0.2	
794	CCc1cc2ccc(C(C)(C#N)Cc3ccc(F)cc3Br)cc2[nH]c1=O (stereo not drawn) [Compound 139]	0.1	
631	CCc1cc2ccc(C(C)(C#N)Cc3cccc(Cl)c3)cc2[nH]c1=O (stereo not drawn) [Compound 140]	0.316	
79.4	CCc1cc2ccc(C(C)(C#N)Cc3cc(Cl)cc(Cl)c3)cc2[nH]c1=O (stereo not drawn) [Compound 141]	0.1	
316	CCOc1ccccc1OCCC(C)(C#N)c1ccc2cc(CC)c(=O)[nH]c2c1 (stereo not drawn) [Compound 142]	0.316	
794	CCc1cc2ccc(C(C)(C#N)CCOc3cccc(C)c3)cc2[nH]c1=O (stereo not drawn) [Compound 143]	0.316	
631	CCc1cc2ccc(C(C)(C#N)CCOc3ccc(F)cc3)cc2[nH]c1=O (stereo not drawn) [Compound 144]	0.316	
501	CCc1cc2ccc(C(C)(C#N)CCOc3ccccc3)cc2[nH]c1=O (stereo not drawn) [Compound 145]	0.316	
501	CCc1cc2ccc(C(C)(C#N)CCOc3ccc(Cl)cc3)cc2[nH]c1=O (stereo not drawn) [Compound 146]	0.316	

IC50 (PC-3 cells) [nM]	SMILES	minimal effective concentration (HCT116 cells) [µM]	Mitotic arrest HCT116 LAD (HCT116 cells; HCT116 cells, the values are: pLAD (−log M lowest active dose))
794	CCc1cc2ccc(C(C)(C#N)CCOc3ccc(OC)cc3)cc2[nH]c1=O (stereo not drawn) [Compound 147]	0.316	
794	CCc1cc2ccc(C(C)(C#N)CCOc3ccccc3C)cc2[nH]c1=O (stereo not drawn) [Compound 148]	0.316	
1000	CCc1cc2ccc(C(C)(C#N)CCOc3ccc(C)cc3)cc2[nH]c1=O (stereo not drawn) [Compound 149]	0.316	
2000	CCc1cc2ccc(C(C)(C#N)CCOc3cccc(Cl)c3)cc2[nH]c1=O (stereo not drawn) [Compound 151]	0.316	
1580	CCc1cc2ccc(C(C)(C#N)CCOc3ccccc3Cl)cc2[nH]c1=O (stereo not drawn) [Compound 152]	0.316	
631	CCc1cc2ccc(C(C)(C#N)CCOc3ccccc3Br)cc2[nH]c1=O (stereo not drawn) [Compound 153]	0.316	
398	CCc1cc2ccc(C(C)(C#N)CCOc3ccc(Cl)cc3Cl)cc2[nH]c1=O (stereo not drawn) [Compound 154]	0.316	
1580	CCc1cc2ccc(C(C)(C#N)CCOc3ccc(SC)cc3)cc2[nH]c1=O (stereo not drawn) [Compound 155]	1	
2510	CCc1cc2ccc(C(C)(C#N)CC3CN(C)c4ccccc4O3)cc2[nH]c1=O (stereo not drawn) [Compound 156]	0.316	
1000	CCc1cc2ccc(C(C)(C#N)CCOc3ccc4ccccc4c3)cc2[nH]c1=O (stereo not drawn) [Compound 157]	0.316	
794	CCc1cc2ccc(C(C)(C#N)CCOc3cccc4ccccc34)cc2[nH]c1=O (stereo not drawn) [Compound 158]	0.1	
> 10000	CCc1cc2ccc(C(C)(C#N)CCOc3ccccc3C(C)=O)cc2[nH]c1=O (stereo not drawn) [Compound 159]	3.16	
1260	CCc1cc2ccc(C(C)(C#N)CCOc3ccc(Br)cc3)cc2[nH]c1=O (stereo not drawn) [Compound 160]	0.316	
501	CCc1cc2ccc(C(C)(C#N)CCOc3ccc(C#N)cc3)cc2[nH]c1=O (stereo not drawn) [Compound 161]	0.1	
> 10000	CCc1cc2ccc(C(C)(C#N)CCOc3ccc4oc(C)c(C)c4c3)cc2[nH]c1=O (stereo not drawn) [Compound 162]	3.16	
1000	CCc1cc2ccc(C(C)(C#N)CCOc3cccc4c3OCCO4)cc2[nH]c1=O (stereo not drawn) [Compound 163]	1	
1000	CCc1cc2ccc(C(C)(C#N)Cc3cccc(CCC#N)c3)cc2[nH]c1=O (stereo not drawn) [Compound 165]		6.5
7940	CCc1cc2ccc(C(C#N)(CCOc3ccccc3)C3CC3)cc2[nH]c1=O (stereo not drawn) [Compound 166]	1	
7940	CCc1cc2ccc(C(C)(C#N)CCOc3ccc(C(C)(C)C)cc3)cc2[nH]c1=O (stereo not drawn) [Compound 167]	1	
